IC50 data for 17 molecules are collected here from US12065445B2, “CDK2 inhibitors and methods of using the same” (Cedilla Therapeutics, Inc., priority 2021, dated 2024).

The subject of experiment [1] is Kuramochi cells labeled with mApple-H2B. The experiment in a line: IncuCyte Cell Proliferation Assay. The class given is cell-based. The note with it: 72 h. The method in brief:
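GI50 came from dose-response fits of cell-count fold change between 0 and 72 h, normalized to DMSO controls. Counts were fluorescent nuclei from live-cell images over a 10-point, ½ log series starting at 20 μM.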

The next experiment deals with Kuramochi cells. Put plainly: BrdU Cell Proliferation Assay. The note with it: read-out: BrdU - KURAMOCHI.1: IC50. The class given is cell-based. The essentials: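 Signal is 450 nm absorbance from a peroxidase anti-BrdU ELISA after a 1-hour BrdU label, background-subtracted and normalized to DMSO-treated wells. Kuramochi cells (2,000 per well) had been exposed to compound for 4 days. Dosing used a 10-point dose response in 3-fold steps.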

Regarding `CNC(=O)[C@@H](NC(=O)[C@@H]1CN(C(=O)c2sc(Cl)nc2C)CC12CN(C(=O)[C@H]1CC1(C)C)C2)[C@@H](C)OCC1CCCCC1` [I-208A], the IC50 (in experiment [1]; with Kuramochi cells) was at most 0.5 µM throughout.
On to `CNC(=O)[C@@H](NC(=O)[C@@H]1CN(C(=O)c2cnn(Cc3ccccc3)c2)CC12CN(C(=O)[C@H]1CC1(C)C)C2)[C@@H](C)OCC12CC(C(=O)OC)(C1)C2` [I-299], for which the IC50 in experiment [1] was over 20 µM; in the experiment with Kuramochi cells it was over 10 µM.
Taken in the same sequence, the figures for `CNC(=O)C(NC(=O)[C@@H]1CN(C(=O)c2cncs2)CC12CN(C(=O)[C@H]1CC1(C)C)C2)c1cccc(N2CC3(COC3)C2)n1` (stereo partly shown) [I-427] were over 20 µM and over 10 µM.
Taken in the same sequence, the figures for `CNC(=O)[C@@H](NC(=O)[C@@H]1CN(C(=O)c2cnn(Cc3ccc(F)cc3)c2)CC12CN(C(=O)[C@H]1CC1(C)C)C2)[C@@H](C)OCc1ccc(F)cc1` [I-136A] were 5 to 20 µM and 0.5 to 5 µM.
Taken in the same sequence, the figures for `Cc1ccc(CNC(=O)[C@@H]2CN(C(=O)c3cnn(Cc4ccccc4)c3)CC23CN(C(=O)[C@H]2CC2(C)C)C3)nc1` [I-365] were over 20 µM and over 10 µM.
Consider `C[C@@H](OCC1CCCCC1)[C@H](NC(=O)C1CN(C(=O)c2cncs2)CC12CN(C(=O)[C@H]1CC1(C)C)C2)C(=O)N1CCC[C@@H](CO)C1` (stereo partly shown) [I-197], for which the IC50 in experiment [1] is at most 0.5 µM; in the experiment with Kuramochi cells it was 0.5 to 5 µM.
Taken in the same sequence, the figures for `CNC(=O)[C@@H](NC(=O)[C@@H]1CN(Cc2cncs2)CC12CN(C(=O)[C@H]1CC1(C)C)C2)[C@@H](C)OCc1ccccc1` [I-51A] were 5 to 20 µM and 5 to 10 µM.
The like results for `CC1(C)C[C@@H]1C(=O)N1CC2(CN(C(=O)c3cnn(Cc4ccccc4)c3)C[C@H]2C(=O)NCc2ccc(O)nn2)C1` [I-400] were, in that order, over 20 µM and over 10 µM.
Regarding `COC[C@H]1CCCN(C(=O)[C@@H](NC(=O)[C@H]2CN(C(=O)c3cncs3)CC23CN(C(=O)[C@H]2CC2(C)C)C3)[C@@H](C)OCC2CCCCC2)C1` [I-196B], the IC50 was 0.5 to 5 µM in experiment [1] and at most 0.5 µM in the experiment with Kuramochi cells.
Taken in the same sequence, the figures for `CNC(=O)[C@@H](NC(=O)[C@@H]1CN(C(=O)Cc2cnn(C)c2)CC12CN(C(=O)[C@H]1CC1(C)C)C2)[C@@H](C)OCc1ccccc1` [I-384] were over 20 µM and over 10 µM.
The like results for `COC[C@H]1CCCN(C(=O)[C@@H](C)NC(=O)[C@@H]2CN(C(=O)c3cncs3)CC23CN(C(=O)[C@H]2CC2(C)C)C3)C1` [I-324] were, in that order, over 20 µM and over 10 µM.
Consider `CNC(=O)[C@@H](NC(=O)[C@@H]1CN(C(=O)c2cncs2)CC12CN(C(=O)[C@H]1CC1(C)C)C2)[C@@H](C)OCC1CCCC2(CC2)C1` (stereo partly shown) [I-370], for which the half-maximal inhibitory concentration (IC50) (in experiment [1]; in the experiment with Kuramochi cells) was at most 0.5 µM each time.
Regarding `Cc1ccc(CNC(=O)[C@@H]2CN(C(=O)c3cnn(Cc4ccccc4)c3)CC23CN(C(=O)[C@H]2CC2(C)C)C3)nn1` [I-252], the values for the IC50 (in experiment [1]; with Kuramochi cells) were 5 to 20 µM and 5 to 10 µM, respectively.
Taken in the same sequence, the figures for `COC[C@H]1CCCN(C(=O)[C@@H](NC(=O)[C@@H]2CN(C(=O)c3cncs3)CC23CN(C(=O)[C@H]2CC2(C)C)C3)[C@@H](C)OC(C)C2CCCCC2)C1` (stereo partly shown) [I-374] were 0.5 to 5 µM and 0.5 to 5 µM.
The like results for `CC1(C)C[C@@H]1C(=O)N1CC2(CN(C(=O)c3cnn(Cc4ccccc4)c3)C[C@H]2C(=O)NC[C@H]2CC[C@H](C)CC2)C1` [I-382] were, in that order, over 20 µM and over 10 µM.
With `COC[C@H]1CCCN(C(=O)[C@@H](NC(=O)[C@@H]2CN(C(=O)c3cncs3)CC23CN(C(=O)[C@H]2CC2(C)C)C3)[C@@H](C)OCc2ccc(C(F)(F)F)cc2)C1` [I-319], the figures for the IC50 (in experiment [1]; in the experiment with Kuramochi cells) were 0.5 to 5 µM and at most 0.5 µM, respectively.
Taken in the same sequence, the figures for `C[C@@H](OCC1CCCCC1)[C@H](NC(=O)C1CN(C(=O)c2cnn(Cc3ccccc3)c2)CC12CN(C(=O)[C@H]1CC1(C)C)C2)C(=O)N1CCCCC1` (stereo partly shown) [I-194 mixture] were at most 0.5 µM and at most 0.5 µM.
